In US8759558B2, “Sulphur containing lipids for use as food supplement or as medicament” (Pronova Biopharma Norge AS, priority 2008, dated 2014):
pEC50: −log10 of the molar value.

Tests used:
[1] = biological target: T1, PPARα (Homo sapiens, UniProt Q07869); test: PPARα activation in-vitro, mammalian-one-hybrid (M1H) luciferase reporter assay, concentration response; assay type: cell-based; conditions: GAL4-DBD-PPARα-LBD, transiently transfected HEK293 cells; for PPARα Efficacy: positive control GW7647
T1 construct: expressed in transfected cells; host or cells: HEK293 cells, transiently transfected
T1 sequence (Q07869 239-466 limits assumed): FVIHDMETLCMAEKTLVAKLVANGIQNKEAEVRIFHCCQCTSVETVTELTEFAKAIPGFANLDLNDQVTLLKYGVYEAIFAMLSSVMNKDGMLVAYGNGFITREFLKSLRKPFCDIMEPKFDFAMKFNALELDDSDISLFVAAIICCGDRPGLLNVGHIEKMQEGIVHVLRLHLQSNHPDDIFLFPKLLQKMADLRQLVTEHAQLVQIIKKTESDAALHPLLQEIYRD
Procedure: The assay was carried out in-vitro using mammalian-one-hybrid assays (M1H) comprising GAL4-DNA binding domain-PPARα-LBD fusion constructs in conjunction with 5×GAL4-sites driven Photinus pyralis luciferase reporter construct in transiently transfected HEK293 cells.

[2] = test system: Wistar rat; conditions: Wistar rat model; Willumsen et al 1997; cited from earlier work

Row | pEC50 [1] | PPARα Efficacy [1] | Structure (SMILES) | plasma triglycerides [2]
1 | 6.54 | 84% | CC/C=C\C/C=C\C/C=C\C/C=C\C/C=C\CCCCSC(CC)(CC)C(=O)O [Compound (12), 2-ethyl-2-((5Z,8Z,11Z,14Z,17Z)-icosa-5,8,11,14,17-pentaenylthio)butanoic acid] | 
2 |  | 100% | CC(C)(Sc1ccc(CCN(CCCCC2CCCCC2)C(=O)NC2CCCCC2)cc1)C(=O)O [GW7647] | 
3 |  |  | CC/C=C\C/C=C\C/C=C\C/C=C\CCSCC(=O)OC [Methyl (all-Z)-3-thia-6,9,12,15-octadecatetraenoate] | lowered plasma triglycerides to a similar extent
